Consider 13 compounds from patent US20140120087A1, “TRIAZOLOPYRIDINES” (BAYER INTELLECTUAL PROPERTY GMBH, priority 2011, published 2014).

The structures appear in SMILES notation.

Data set [1] deals with T1, Mps-1 kinase (Homo sapiens, UniProt P33981).
T1 sequence (P33981 1-857): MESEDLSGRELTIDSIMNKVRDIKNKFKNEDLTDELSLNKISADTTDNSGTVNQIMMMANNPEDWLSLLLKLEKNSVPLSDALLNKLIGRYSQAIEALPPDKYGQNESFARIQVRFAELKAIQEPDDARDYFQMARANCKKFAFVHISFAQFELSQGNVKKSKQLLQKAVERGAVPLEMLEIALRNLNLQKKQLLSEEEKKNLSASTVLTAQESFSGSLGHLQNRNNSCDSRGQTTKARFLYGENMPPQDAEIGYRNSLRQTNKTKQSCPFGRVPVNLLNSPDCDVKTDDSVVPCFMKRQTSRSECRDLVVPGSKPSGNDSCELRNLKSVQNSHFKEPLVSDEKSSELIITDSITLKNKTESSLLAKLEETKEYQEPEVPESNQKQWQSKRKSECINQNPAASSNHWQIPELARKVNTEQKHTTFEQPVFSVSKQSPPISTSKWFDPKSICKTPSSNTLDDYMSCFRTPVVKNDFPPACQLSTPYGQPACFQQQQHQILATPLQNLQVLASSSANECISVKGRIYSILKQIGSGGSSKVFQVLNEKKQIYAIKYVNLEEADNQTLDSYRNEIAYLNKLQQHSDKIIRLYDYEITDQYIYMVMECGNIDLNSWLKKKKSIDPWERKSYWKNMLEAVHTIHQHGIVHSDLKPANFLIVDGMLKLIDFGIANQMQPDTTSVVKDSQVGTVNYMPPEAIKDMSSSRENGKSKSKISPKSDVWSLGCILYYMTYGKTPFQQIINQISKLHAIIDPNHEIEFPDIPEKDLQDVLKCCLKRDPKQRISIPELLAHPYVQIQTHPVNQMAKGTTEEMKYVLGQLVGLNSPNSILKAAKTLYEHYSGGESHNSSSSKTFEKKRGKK
In words: Mps-1 kinase assay with 2 mM ATP (TR-FRET).

A short description of data set [2]: Hydrolytic stability assay at pH 2. It is filed as physicochemical. Particulars: buffer pH 2, 37° C., compounds of the invention. Summed up:
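Compound from a 10 mM DMSO stock was diluted in acetonitrile, added to pH 2 buffer and incubated at 37° C. HPLC injections were made at time zero and after 1, 2 and 24 hrs. Decay (%) was calculated from peak areas relative to the time-zero injection.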

Data set [3] has as its target T1, Mps-1 kinase. The data set is described as follows: Mps-1 kinase assay with 10 μM ATP (TR-FRET). On the technique in general: TR-FRET usually uses a lanthanide donor and a delayed reading to cut background.

As a reminder, the IC50 is the concentration needed to halve the response being measured. High values mean a need for much substance, low ones inhibition by little substance.

With `CCOCCNC(=O)c1ccc(Nc2nc3ccc(-c4ccc(C(=O)NCc5ccc(F)cc5)cc4)cn3n2)c(OC)c1` [Example 02.10, N-(2-ethoxyethyl)-4-[(6-{4-[(4-fluorobenzyl)carbamoyl]phenyl}[1,2,4]-triazolo[1,5-α]pyridin-2-yl)amino]-3-methoxybenzamide], the IC50 on Mps-1 kinase [1] was 2.3 nM; on Mps-1 kinase [3], no more than 1 nM. In data set [2], the “Hydrolysis at pH 2; Decay in % after 24 h” value (from here on “Hydrolysis … in % after 24 h”) is listed as less than 10%.

With `CCNC(=O)c1ccc(Nc2nc3ccc(-c4ccc(NC(=O)Cc5ccc(F)cc5)cc4)cn3n2)c(OC)c1` [Example 01.4, N-ethyl-4-{[6-(4-{[(4-fluorophenyl)acetyl]amino}phenyl)[1,2,4]triazolo[1,5-α]pyridin-2-yl]amino}-3-methoxybenzamide], the IC50 at Mps-1 kinase [1] and at Mps-1 kinase [3] was no more than 1 nM each time. Further, the “Hydrolysis … in % after 24 h” value in data set [2] is given as less than 10%.

As to `CC(C)(C)NC(=O)c1ccc(Nc2nc3ccc(-c4ccc(NC(=O)Cc5ccc(F)cc5)cc4)cn3n2)c(OCC(F)(F)F)c1` [Example 01.21, N-tert-butyl-4-{[6-(4-{[(4-fluorophenyl)acetyl]amino}phenyl)[1,2,4]-triazolo[1,5-α]pyridin-2-yl]amino}-3-(2,2,2-trifluoroethoxy)benzamide], the 50% inhibitory concentration (IC50) at Mps-1 kinase [1] and at Mps-1 kinase [3] was no more than 1 nM in each case. Besides, the “Hydrolysis … in % after 24 h” value in data set [2] is given as less than 10%.

For `COc1cc(C(=O)NC(C)(C)C)ccc1Nc1nc2ccc(-c3ccc(C(=O)NCc4ccc(F)cc4)cc3)cn2n1` [Example 02.14, N-tert-butyl-4-[(6-{4-[(4-fluorobenzyl)carbamoyl]phenyl}[1,2,4]triazolo-[1,5-α]pyridin-2-yl)amino]-3-methoxybenzamide], the half-maximal inhibitory concentration (IC50) against Mps-1 kinase [1] is 2.4 nM; against Mps-1 kinase [3], no more than 1 nM. Besides, the “Hydrolysis … in % after 24 h” value in data set [2] is listed as less than 10%.

As for `COc1cc(C(=O)NC(C)(C)CO)ccc1Nc1nc2ccc(-c3ccc(C(=O)NCc4ccc(F)cc4)c(OC)c3)cn2n1` [Example 08.1, N-(4-fluorobenzyl)-4-[2-({4-[(1-hydroxy-2-methylpropan-2-yl)carbamoyl]-2-methoxyphenyl}amino)[1,2,4]triazolo[1,5-α]pyridin-6-yl]-2-methoxybenz-amide], the 50% inhibitory concentration (IC50) at Mps-1 kinase [1] is 4.3 nM; on Mps-1 kinase [3], no more than 1 nM. For the same compound, the “Hydrolysis … in % after 24 h” value in data set [2] is given as less than 10%.

For `O=C(NCCO)c1ccc(Nc2nc3ccc(-c4ccc(C(=O)NCC5CC5)cc4)cn3n2)c(OCC(F)(F)F)c1` [Example 06.4, 4-[(6-{4-[(cyclopropylmethyl)carbamoyl]phenyl}[1,2,4]triazolo[1,5-α]-pyridin-2-yl)amino]-N-(2-hydroxyethyl)-3-(2,2,2-trifluoroethoxy)benzamide], the 50% inhibitory concentration (IC50) at Mps-1 kinase [1] is 11 nM; against Mps-1 kinase [3], no more than 1 nM. Moreover, the “Hydrolysis … in % after 24 h” value in data set [2] is listed as less than 10%.

`CCOc1cc(C(=O)NC(C)(C)CO)ccc1Nc1nc2ccc(-c3ccc(NC(=O)Cc4ccc(F)cc4)cc3)cn2n1` [Example 01.9, 3-ethoxy-4-{[6-(4-{[(4-fluorophenyl)acetyl]amino}phenyl)[1,2,4]triazolo-[1,5-α]pyridin-2-yl]amino}-N-(1-hydroxy-2-methylpropan-2-yl)benzamide]: the IC50 against Mps-1 kinase [1] and against Mps-1 kinase [3] was no more than 1 nM each time. Besides, in data set [2], the “Hydrolysis … in % after 24 h” value is less than 10%.

Regarding `CCN(CC)C(=O)c1ccc(Nc2nc3ccc(-c4ccc(NC(=O)Cc5ccc(F)cc5)cc4)cn3n2)c(OCCOC)c1` [Example 01.26, N,N-diethyl-4-{[6-(4-{[(4-fluorophenyl)acetyl]amino}phenyl)[1,2,4]triazolo-[1,5-α]pyridin-2-yl]amino}-3-(2-methoxyethoxy)benzamide], the IC50 is 21 nM against Mps-1 kinase [1] and no more than 1 nM at Mps-1 kinase [3]. Further, in data set [2], the “Hydrolysis … in % after 24 h” value is less than 10%.

Consider `CCN(CC)C(=O)c1ccc(Nc2nc3ccc(-c4ccc(NC(=O)Cc5ccc(F)cc5)cc4)cn3n2)c(OCC(F)(F)F)c1` [Example 01.22, N,N-diethyl-4-{[6-(4-{[(4-fluorophenyl)acetyl]amino}phenyl)[1,2,4]triazolo-[1,5-α]pyridin-2-yl]amino}-3-(2,2,2-trifluoroethoxy)benzamide], for which the IC50 at Mps-1 kinase [1] and at Mps-1 kinase [3] was no more than 1 nM each time. Further, in data set [2], the “Hydrolysis … in % after 24 h” value is recorded as less than 10%.

Regarding `COc1cc(C#N)ccc1Nc1nc2ccc(-c3ccc(NC(=O)Cc4ccc(F)cc4)cc3)cn2n1` [Example 01.2, N-(4-{2-[(4-cyano-2-methoxyphenyl)amino][1,2,4]triazolo[1,5-α]pyridin-6-yl}phenyl)-2-(4-fluorophenyl)acetamide], the figures for the concentration for half-maximal inhibition (IC50) against Mps-1 kinase [1] and on Mps-1 kinase [3] were 4.1 nM and no more than 1 nM, respectively. Besides, the “Hydrolysis … in % after 24 h” value in data set [2] is listed as less than 10%.

For `CCOc1cc(C(=O)NCCO)ccc1Nc1nc2ccc(-c3ccc(NC(=O)Cc4ccc(F)cc4)cc3)cn2n1` [Example 01.8, 3-ethoxy-4-{[6-(4-{[(4-fluorophenyl)acetyl]amino}phenyl)[1,2,4]triazolo-[1,5-α]pyridin-2-yl]amino}-N-(2-hydroxyethyl)benzamide], the IC50 at Mps-1 kinase [1] and at Mps-1 kinase [3] was no more than 1 nM each time. In addition, in data set [2], the “Hydrolysis … in % after 24 h” value was less than 10%.

As to `O=C(NCc1ccc(F)cc1)c1ccc(-c2ccc3nc(Nc4ccc(C(=O)NCC(F)(F)F)cc4OCC(F)(F)F)nn3c2)cc1` [Example 02.23, 4-[(6-{4-[(4-fluorobenzyl)carbamoyl]phenyl}[1,2,4]triazolo[1,5-α]pyridin-2-yl)amino]-3-(2,2,2-trifluoroethoxy)-N-(2,2,2-trifluoroethyl)benzamide], the 50% inhibitory concentration (IC50) at Mps-1 kinase [1] and against Mps-1 kinase [3] was no more than 1 nM throughout. The “Hydrolysis … in % after 24 h” value in data set [2] is less than 10%.

Regarding `CCOc1cc(C(=O)N(CC)CCOC)ccc1Nc1nc2ccc(-c3ccc(C(=O)NCC4CC4)cc3)cn2n1` [Example 06.2, 4-[(6-{4-[(cyclopropylmethyl)carbamoyl]phenyl}[1,2,4]triazolo[1,5-α]-pyridin-2-yl)amino]-3-ethoxy-N-ethyl-N-(2-methoxyethyl)benzamide], the 50% inhibitory concentration (IC50) against Mps-1 kinase [1] turned out to be 26 nM; against Mps-1 kinase [3], 1.4 nM. Besides, the “Hydrolysis … in % after 24 h” value in data set [2] is less than 10%.
